Measured values taken from patent US20050239805A1, “Mixtures of fused pyrimidinones and dinitrophenolic compounds useful for controlling powdery mildews” (priority 2002, published 2005).

Assays:
[1] = tested on: Erysiphe graminis f. sp. tritici; assay: Test A: preventive spray on wheat seedlings, wheat powdery mildew disease control; assay type: in vivo, Erysiphe graminis f. sp. tritici (wheat seedlings); conditions: average of three replicates
Description: The formulation containing a compound of component (1) is dissolved in water to form a stock solution. For testing component (1) individually the stock solution is diluted to the final desired concentration to form a test solution. For example, the compositions of component (1) (e.g., Compound 1 of Index Table A), either alone or in combination, are sprayed at 0.08 or 0.4 ppm to the point of run-off on the test plants, equivalent to a rate of 0.2 or 1 g/ha, respectively.
The commercially available formulation of component (2) (e.g. the Karathane® 19.5% wettable powder formulation of dinocap) is suspended in water to form a stock suspension. For testing component (2) individually the stock suspension is diluted to the final desired concentration to form a test suspension. For example, dinocap, either alone or in combination, is sprayed at 10, 40 or 200 ppm to the point of run-off on the test plants, equivalent to a rate of 25, 100 or 500 g/ha, respectively.
For testing combinations, the stock suspensions of the individual active ingredients prepared as above are then combined in the appropriate ratio, and diluted to the final desired concentration to form a test suspension.
The resulting test suspensions are then used in the following tests. Test suspensions are sprayed to the point of run-off on the test plants at the rates of active ingredient described below. The tests were replicated three times and the results reported as the average of the three replicates.
The test suspension was sprayed to the point of run-off on wheat seedlings. The following day the seedlings were inoculated with a spore dust of Erysiphe graminis f. sp. tritici, (the causal agent of wheat powdery mildew) and incubated in a growth chamber at 20° C. for 8 days, after which disease ratings were made.
Results for Test A are given in Table A. In the table, a rating of 100 indicates 100% disease control and a rating of 0 indicates no disease control (relative to the controls). Columns labeled Observed Disease Control indicates the average of three replications. Columns labeled Expected Disease Control indicate the expected value for each treatment mixture using the Colby equation.

Row | Molecule | melting point [°C] | Observed Disease Control ([1]; application rate 0.08 ppm, inoculated day after spray, rated after 8 days at 20° C.) [%] | Observed Disease Control ([1]; application rate 0.4 ppm, rated after 8 days) [%] | Observed Disease Control ([1]; application rate 10 ppm, rated after 8 days) [%] | Observed Disease Control ([1]; application rate 40 ppm, rated after 8 days) [%] | Observed Disease Control ([1]; application rate 200 ppm, rated after 8 days) [%]
1 | CCCOc1nc2ccc(I)cc2c(=O)n1CCC [Compound 1, 6-iodo-3-propyl-2-propyloxy-4(3H)-quinazolinone] | 48 to 49 | 80 | 99 | – | – | –
2 | 2,6-dinitro-4-octylphenyl crotonates and 2,4-dinitro-6-octylphenyl crotonates [Dinocap] | – | – | – | 45 | 76 | 98
